Assay [1] deals with experimentally-induced ocular inflammation. In words: Vascular permeability in experimentally-induced ocular inflammation. It is filed as in vivo. To be noted: earlier experiments of the applicant's laboratory.
The test system of another assay is IL-1-induced uveitis. In words: IL-1-induced uveitis in rat eyes. It is filed as in vivo. The settings on record: earlier experiments of the applicant's laboratory.

The values below come from patent US11045435B2, “Methods for treating ocular diseases” (NATUREWISE BIOTECH & MEDICALS CORPORATION, priority 2016, dated 2021).

In the case of `COc1ccc2ccc(=O)oc2c1CC=C(C)C` [Osthole], the vascular permeability result in assay [1] was “showed efficacy to reduce vascular permeability”. In the assay with IL-1-induced uveitis, the IL-1-induced uveitis entry is “inhibit IL-1-induced uveitis”.
